Data set [1] deals with spinach leaves. Briefly: SERS depth mapping of pesticide and AuNPs penetration into spinach leaves (Example 2). The following applies: 100 mg/L.
Experimental: (§1) Organic grapes and spinach leaves were carefully hand washed as described above for apples before experiment to remove surface contaminants. In order to study pesticide penetration in grapes, the same two washing methods were used as presented above for apples. Grapes treated with each pesticides solution (100 mg/L) were washed with either a 5% acetic acid or 1% NaHCO3 solution. Washing effects were evaluated using the SERS methods and the penetration behaviors of each pesticide were monitored as for apple above. Pesticides penetration experiments on spinach leaves were carried out as described above for apple and grape.
(§2) A DXR Raman microscope (Thermo Fisher Scientific, Madison, Wis., USA) with a 780 nm laser and a 20× long distance microscope objective was used in this study. Each sample was scanned from 400 to 2000 cm^−1 for a 2 s exposure time. For measuring pesticides on both gold slides and fresh produce surfaces, Raman mapping was carried out using a 50 μm slit aperture and 5 mW laser power to maximize the signals. Ten discrete locations were randomly chosen on each sample for analysis. For penetration studies, SERS depth mapping images were obtained using a 50 μm pinhole aperture and 1 mW laser power to control the confocal depths using a scanning depth of 300 μm. Each depth scanning vertical to produce surface was randomly selected in apple peel, grape peel or spinach leaf with an area of 100 μm×300 μm. The step size of the depth mapping was 20 μm and one image contained 75 scanning spots. Raman images were integrated based on the characteristic peaks in the pesticide spectra using the Atlμs Function in the OMINCS software (Thermo Fisher Scientific). Statistical analysis was conducted using SPSS Statistics 22 software (IBM Corporation, Armonk, N.Y., USA). The differences among results were calculated using an analysis of variance (ANOVA) and a post hoc Duncan test with a confidence level of 95%.
Data set [2] has as its system apple. Briefly: SERS depth mapping of pesticide and AuNPs penetration into apples (Example 2). The following applies: 100 mg/L.
Experimental: Organic apples were carefully hand washed with ultrapure water for 3 min and air-dried before experiment to remove surface contaminants. Then a 5 μL aliquot from a 100 mg/L solution of each pesticide was pipetted onto the apple surface. After air-drying the pesticides, apple peels with ˜2.0×2.0 cm^2 area were cut from each treated apple using a sharp knife. To determine pesticide penetration with penetrative AuNPs, any interference caused by pesticide residues on the apple surface were removed by washing. Two different washing methods were investigated using either an acetic acid- or NaHCO3-containing solution. Each peel was immersed into 20 mL of either a 5% acetic acid or a 1% NaHCO3 solution for different times and gently rinsed with 200 mL of deionized water for 10 s, respectively. All washed samples were air-dried at room temperature for 10 min before being treated with AuNPs. After drying AuNPs for 1 h, SERS detection was performed on that area to evaluate washing effects. Ten discrete locations were randomly chosen on each apple peel sample and scanned. Similar samples were prepared without either washing method and were scanned as above for comparisons.
Following drying, the surface residues from each applied pesticide were washed off using either the NaHCO3 or acetic acid solution and a 5 μL aliquot of the 250 mg/L AuNPs solution was added as described above. After 1 h of drying, SERS depth mapping images were obtained using the confocal Raman instrument.
A DXR Raman microscope (Thermo Fisher Scientific, Madison, Wis., USA) with a 780 nm laser and a 20× long distance microscope objective was used in this study. Each sample was scanned from 400 to 2000 cm^−1 for a 2 s exposure time. […] Ten discrete locations were randomly chosen on each sample for analysis. For penetration studies, SERS depth mapping images were obtained using a 50 μm pinhole aperture and 1 mW laser power to control the confocal depths using a scanning depth of 300 μm. […] The step size of the depth mapping was 20 μm and one image contained 75 scanning spots. Raman images were integrated based on the characteristic peaks in the pesticide spectra using the Atlμs Function in the OMINCS software (Thermo Fisher Scientific). […] The differences among results were calculated using an analysis of variance (ANOVA) and a post hoc Duncan test with a confidence level of 95%.
Data set [3] has as its system grape. Briefly: SERS depth mapping of pesticide and AuNPs penetration into grapes (Example 2). The following applies: 100 mg/L.
Experimental: as §1, §2
Data set [4] has as its system spinach leaves. Briefly: SERS depth mapping of pesticide and AuNPs penetration into spinach leaves (Example 1). As to conditions: 20 ppm.
Experimental: These leaves were carefully washed with ultrapure water and dried before experimentation. […] A volume of 50 μL of each solution was then mixed with 50 μL of a 250 ppm 50 nm AuNPs solution for 1 min. at room temperature to ensure complete pesticide complexation with AuNPs through Au-thiol bond. 5 μL of each of the pre-prepared pesticide solution were then pipetted onto spinach leaves situated on a glass slide and air-dried in a fume hood for 30 min. […] All controls were air-dried in a fume hood as above. For evaluation of feasibility of Raman detection of pesticides on spinach leaves, 5 μL of the pre-prepared pesticide solution and AuNPs solution without pesticide were also dropped onto a gold slide and dried for 30 min in a hood for comparisons. Raman spectra were collected individually for all treatments.
After 1 h, bright field light scattering images and SERS mapping images were collected from all samples.
In order to remove any interference caused by pesticide residues on the spinach leaf surface, different washing methods were investigated. […] Then each leaf was immersed into 20 mL of deionized water or 20 mL of a 10 mg/mL of NaHCO3 solution. For the water washing method, each leaf was submerged into water for either 10 or 60 min. For the NaHCO3 washing method, each leaf was submerged into the NaHCO3 solution for 30, 60, 90, or 120 s and then gently rinsed with 500 mL of deionized water for 30 s, respectively. All washed leaf samples were air-dried at room temperature for 30 min before being treated with AuNPs. […]
After 1 h for drying, SERS depth mapping images were obtained using the confocal Raman instrument. Similar samples without washing were likewise measured for comparison purposes.
To study accurate systemic pesticide penetration, different washing methods were also used to remove surface thiabendazole residues. […] Surface thiabendazole residues were then analyzed by pipetting 5 μL of a 250 ppm AuNP solution onto the same leaf area where thiabendazole had been placed prior to washing and determining SERS depth mapping images by Raman instrument as before. […]
Data set [5] concerns harvested basil leaves. Kind of data set: SERS depth mapping of pesticide and AuNPs penetration into harvested basil leaves (Example 3). The following applies: 10 mg/L.
Experimental: (§3) A 5 μL aliquot of the mixture was pipetted onto harvested leaves or onto the live leaves on the plant. After air drying for 30 min, SERS depth mapping images were obtained using a confocal Raman instrument as detailed below.
For the study of the pesticides penetration on harvested basil leaves, 36 intact leaves (0.2 g per leaf) were first cut off from petiole on live plants using a sharp knife and carefully rinsed as described above for live leaves. During the experiment, the stems of each harvested leaf were immersed into water to keep the leaf fresh. To study pesticide penetration into harvested leaves, the same rinsing method and pesticides penetration protocols were carried out as described above for live leaves.
For penetration studies, SERS depth mapping images were obtained using a 50 μm pinhole aperture and 3 mW laser power to control the confocal depth using a scanning depth of 300 μm. Each depth area (100 μm×300 μm) was chosen from the treated spot on the leaf distant from a gland because the gland is the cavity, not a flat surface. The step size of the depth mapping was 20 μm and one image contained 75 scanning spots. […] The differences among results were calculated using an independent sample T-test or analysis of variance (ANOVA) and a post hoc Duncan test with a confidence level of 95%.
Data set [6] relates to live basil leaves. Briefly: SERS depth mapping of pesticide and AuNPs penetration into live basil leaves (Example 3).
Experimental: as §3
For the study of pesticide penetration into live basil leaves, 36 intact leaves (approximately 0.2 g per leaf) were selected from six live plants as the experimental target (6 leaves per plant) and carefully rinsed with 450 mL ultrapure water for 30 s and air-dried before the experiment to remove surface contaminants like dust. After rinsing, the clean leaves were used to study of pesticide penetration. […] Some of the pesticides might penetrate into leaves from the surface during the periods. After pesticide penetrated into leaves for different time periods, ultrapure water with flow rate of 15 mL/s was utilized to gently rinse the surface of leaves (Step 2). Different rinsing times were then investigated to complete removal of each pesticide residue on the surface. After rinsing of surface pesticide residues, all leaf samples were air-dried at room temperature for 30 min. […] The video camera in the Raman microscope was used to record the position on the leaves and help to find the same area for AuNPs deposition. After AuNPs treatment for drying 30 min, SERS detection was performed on that area using the confocal Raman instrument. Each treatment was performed twice.
For penetration studies, SERS depth mapping images were obtained using a 50 μm pinhole aperture and 3 mW laser power to control the confocal depth using a scanning depth of 300 μm. Each depth area (100 μm×300 μm) was chosen from the treated spot on the leaf distant from a gland because the gland is the cavity, not a flat surface. The step size of the depth mapping was 20 μm and one image contained 75 scanning spots. Raman images were integrated based on the characteristic peaks in the pesticide spectra using the Atlμs Function in the OMINCS software (Thermo Fisher Scientific). There was one spot on each leaf and one depth area was selected from each spot. For each pesticide depth mapping experiment, there were six duplicates with six leaves coming from three different plants (2 leaves from each plant).
Pesticide penetration was investigated using both intact and damaged leaves on live plants. Damaged leaves were prepared using a sharp knife to scratch the top surface of intact leaves. Each of the damaged leaves had 20 scrapes on each leaf and the distance between each scrape is 0.2 cm.
Where [7] appears, read: 48 h exposure, surface residues washed off.

As for `COP(=S)(OC)SCN1C(=O)c2ccccc2C1=O` [phosmet, O,O-dimethyl S-Phthalimido Methyl Phosphorodithioate], the results for the “Exposure time at which pesticide was first detected” value in data set [1] and in data set [2] were 24 h and 6 h, respectively. Moreover, the Penetration depth in data set [1] (setting [7]) was 70 μm; in data set [2] (setting [7]), ~55 μm; in data set [3] (setting [7]), “about 20 μm”. Further, the “Exposure time at which penetration was first observed” value in data set [3] amounted to 48 h.
In the case of `C/C(=N\C#N)N(C)Cc1ccc(Cl)nc1` [acetamiprid, (E)-N-[(6-chloro-3-pyridyl)methyl]-N′-cyano-N-methylethanimidamide], the Penetration depth is 90 μm in data set [1] (setting [7]), ~140 μm in data set [2] (setting [7]) and “about 75 μm” in data set [3] (setting [7]). Besides, the “Exposure time at which penetration was first observed” value in data set [2] came to 30 min. Also, the “Exposure time at which penetration was first apparent” value in data set [3] worked out at 30 min.
Regarding `c1ccc2[nH]c(-c3cscn3)nc2c1` [thiabendazole, 2-(4-thiazolyl)-1H-benzimidazole], the “Exposure time at which pesticide was first detected” value in data set [1] is 0.5 h. The Penetration depth in data set [1] (30 min) is 100 μm; in data set [1] (24 h), ~160 μm; in data set [1] (setting [7]), ~220 μm; in data set [2] (24 h), “about 140 μm”; in data set [2] (setting [7]) it was “approximately 160 μm”; in data set [3] (24 h), “about 36 μm”. Besides, the Penetration depth entry in data set [3] (setting [7]) is “about 55 μm”; in data set [5] (48 h after exposure, surface rinsed), “approximately 180 μm”; in data set [6] (10 mg/L, live leaves, 48 h after exposure, surface rinsed) it was ~225 μm; in data set [6] (damaged (knife-scratched) leaves on live plants) it was 80 μm; in data set [6] (intact leaves on live plants), 170 μm; in data set [6] (large (old, 45 days) leaves, 24 h exposure), 165 μm. In addition, the Penetration depth in data set [6] (small (young, 15 days) leaves, 24 h exposure) is 95 μm. Further, in data set [2], the “Exposure time at which penetration was first observed” value amounted to 30 min. The “Earliest time of detecting pesticide inside leaves” value in data set [4] (surface residues washed off with NaHCO3) is 6 h. In data set [4] (washed), the “Penetration depth in depth mapping images with increasing exposure time” value is recorded as “approximately 150 μm”. Moreover, in data set [4] (washed, 2 days exposure), the “Penetration depth from scans parallel to leaf surface at different depths” value is given as “approximately 210 μm”. The “Exposure time at which penetration was first apparent” value in data set [3] was determined as 30 min. In addition, the “Exposure time at which penetration was first seen” value is 30 min in data set [5] and 30 min in data set [6] (10 mg/L, live leaves).

The record behind these values is patent US10921257B2, “Method and system of pesticide detection using SERS” (priority 2016, dated 2021).
